# Source: patent US20230278972A1, “SUBSTITUTED HALOALKYL SULFONANILIDE HERBICIDES” (FMC Corporation, priority 2020, published 2023)
# Experiments:
# Assay type in all cases: in vivo
# [1] = test system: wheat (Triticum aestivum); experiment: Test A postemergence, wheat; details: Postemergence, 0 to 100 scale (0 no effect, 100 complete control); for Wheat plant response rating: visual injury vs untreated controls after approx. 10 days
# Procedure, shortened: (§1)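 Greenhouse pot test in a loam–sand blend; compounds delivered in a non-phytotoxic solvent carrying a surfactant, applied either as a directed spray to soil at seeding or over seedlings 2 to 10 cm high with one to two leaves.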
# [2] = test system: pigweed (Amaranthus retroflexus); experiment: Test A postemergence, pigweed; details: Postemergence, 0 to 100 scale (0 no effect, 100 complete control); for Pigweed plant response rating: visual injury vs untreated controls after approx. 10 days
# Procedure, shortened: (§2)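 Test chemicals, formulated in a non-phytotoxic solvent mixture with surfactant, were sprayed postemergence on plants 2 to 10 cm tall at the one- to two-leaf stage. Preemergence treatment was a directed soil spray onto freshly seeded pots. Both used a loam soil and sand blend.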
# [3] = test system: barnyardgrass (Echinochloa crus-galli); experiment: Test A postemergence, barnyardgrass; details: Postemergence, 0 to 100 scale (0 no effect, 100 complete control)
# Procedure, shortened: as §1
# [4] = test system: galium (catchweed bedstraw, Galium aparine); experiment: Test A postemergence, galium; details: Postemergence, 0 to 100 scale (0 no effect, 100 complete control); for Galium plant response rating: visual injury vs untreated controls after approx. 10 days
# Procedure, shortened: as §1
# kochia (Bassia scoparia) [5] = experiment: Test A preemergence, kochia; details: Preemergence; for Kochia plant response rating: visual injury on 0 to 100 scale (0 no effect, 100 complete control), approximately 10 days; for Plant response rating, Kochia: 0 to 100 scale (0 no effect, 100 complete control)
# Procedure, shortened: as §2
# kochia (Bassia scoparia) [6] = experiment: Test A postemergence, kochia; details: Postemergence, 0 to 100 scale (0 no effect, 100 complete control); for Kochia plant response rating: visual injury vs untreated controls after approx. 10 days
# Procedure, shortened: as §2
# [7] = test system: Foxtail, Giant (giant foxtail, Setaria faberi); experiment: Test A postemergence, Foxtail, Giant; details: Postemergence, 0 to 100 scale (0 no effect, 100 complete control); for Foxtail, Giant plant response rating: visual injury vs untreated controls after approx. 10 days
# Procedure, shortened: as §2
# [8] = test system: barnyardgrass (Echinochloa crus-galli); experiment: Test A preemergence, barnyardgrass; details: Preemergence, 0 to 100 scale (0 no effect, 100 complete control)
# Procedure, shortened: as §2
# [9] = test system: Foxtail, Giant (giant foxtail, Setaria faberi); experiment: Test A preemergence, Foxtail, Giant; details: Preemergence; for Foxtail, Giant plant response rating: visual injury on 0 to 100 scale (0 no effect, 100 complete control), approximately 10 days; for Plant response rating, Foxtail, Giant: 0 to 100 scale (0 no effect, 100 complete control)
# Procedure, shortened: as §2
# [10] = test system: ragweed (common ragweed, Ambrosia artemisiifolia); experiment: Test A postemergence, ragweed; details: Postemergence, 0 to 100 scale (0 no effect, 100 complete control); for Ragweed plant response rating: visual injury vs untreated controls after approx. 10 days
# Procedure, shortened: as §2
# corn (Zea mays) = experiment: Test A postemergence, corn; details: Postemergence, 0 to 100 scale (0 no effect, 100 complete control); for Corn plant response rating: visual injury vs untreated controls after approx. 10 days
# Procedure, shortened: as §2
# [11] = test system: blackgrass (Alopecurus myosuroides); experiment: Test A postemergence, blackgrass; details: Postemergence, 0 to 100 scale (0 no effect, 100 complete control); for Blackgrass plant response rating: visual injury vs untreated controls after approx. 10 days
# Procedure, shortened: as §2
# [12] = test system: pigweed (Amaranthus retroflexus); experiment: Test A preemergence, pigweed; details: for Pigweed plant response rating: visual injury on 0 to 100 scale (0 no effect, 100 complete control), approximately 10 days; for Plant response rating, Pigweed: 0 to 100 scale (0 no effect, 100 complete control)
# Procedure, shortened: as §1
# [13] = test system: Ryegrass, Italian (Italian ryegrass, Lolium multiflorum); experiment: Test A preemergence, Ryegrass, Italian; details: Preemergence; for Ryegrass, Italian plant response rating: visual injury on 0 to 100 scale (0 no effect, 100 complete control), approximately 10 days; for Plant response rating, Ryegrass, Italian: 0 to 100 scale (0 no effect, 100 complete control)
# Procedure, shortened: as §2
# [14] = test system: Ryegrass, Italian (Italian ryegrass, Lolium multiflorum); experiment: Test A postemergence, Ryegrass, Italian; details: Postemergence, 0 to 100 scale (0 no effect, 100 complete control); for Ryegrass, Italian plant response rating: visual injury vs untreated controls after approx. 10 days
# Procedure, shortened: as §2
# [15] = test system: ragweed (common ragweed, Ambrosia artemisiifolia); experiment: Test A preemergence, ragweed; details: Preemergence; for Plant response rating, Ragweed: 125 g ai/ha, visual injury, 0 to 100 scale (0 no effect, 100 complete control), approx. 10 days; for Ragweed plant response rating: 500 g ai/ha, visual injury on 0 to 100 scale (0 no effect, 100 complete control), approximately 10 days
# Procedure, shortened: as §2
# [16] = 125 g ai/ha, visual injury approx. 10 days
# [17] = 500 g ai/ha, visual injury, approx. 10 days
# [18] = 125 g ai/ha, visual injury, approx. 10 days
smiles,measurement,setting,value
Cc1cc(Br)c(NS(=O)(=O)C(F)(F)F)cc1C(=O)N1CCOCC1 [Compound 14],"Plant response rating, Wheat",[1]; [16],30
same,"Plant response rating, Wheat",[1]; [17],70
same,"Plant response rating, Pigweed",[2]; [16],60
same,"Plant response rating, Pigweed",[2]; [17],90
same,"Plant response rating, Barnyardgrass",[3]; [16],40
same,"Plant response rating, Barnyardgrass",[3]; [17],80
same,"Plant response rating, Galium",[4]; [16],70
same,"Plant response rating, Galium",[4]; [17],80
same,Kochia plant response rating,kochia (Bassia scoparia) [5]; 125 g ai/ha,70
same,"Plant response rating, Kochia",kochia (Bassia scoparia) [5]; 500 g ai/ha,90
same,"Plant response rating, Kochia",kochia (Bassia scoparia) [6]; [16],40
same,"Plant response rating, Kochia",kochia (Bassia scoparia) [6]; [17],70
same,"Plant response rating, Foxtail, Giant",[7]; [16],40
same,"Plant response rating, Foxtail, Giant",[7]; [17],70
same,"Plant response rating, Barnyardgrass",[8]; 500 g ai/ha,90
same,"Foxtail, Giant plant response rating",[9]; 125 g ai/ha,70
same,"Plant response rating, Foxtail, Giant",[9]; 500 g ai/ha,80
same,"Plant response rating, Ragweed",[10]; [16],60
same,"Plant response rating, Ragweed",[10]; [17],70
same,"Plant response rating, Corn",corn (Zea mays); [16],0
same,"Plant response rating, Corn",corn (Zea mays); [17],20
same,"Plant response rating, Blackgrass",[11]; [16],10
same,"Plant response rating, Blackgrass",[11]; [17],40
same,Pigweed plant response rating,[12]; 125 g ai/ha,80
same,"Plant response rating, Pigweed",[12]; 500 g ai/ha,90
same,"Ryegrass, Italian plant response rating",[13]; 125 g ai/ha,60
same,"Plant response rating, Ryegrass, Italian",[13]; 500 g ai/ha,100
same,"Plant response rating, Ryegrass, Italian",[14]; [16],0
same,"Plant response rating, Ryegrass, Italian",[14]; [17],30
Cc1cc(C)c(N(S(=O)(=O)C(F)(F)F)S(=O)(=O)C(F)(F)F)cc1C1=NOC(C)(CCl)C1 (centres unmarked) [Compound 227],"Plant response rating, Wheat",[1]; 125 g ai/ha,70
same,Wheat plant response rating,[1]; 500 g ai/ha,40
same,"Plant response rating, Pigweed",[2]; 125 g ai/ha,20
same,Pigweed plant response rating,[2]; 500 g ai/ha,50
same,"Plant response rating, Galium",[4]; 125 g ai/ha,40
same,Galium plant response rating,[4]; 500 g ai/ha,90
same,"Plant response rating, Kochia",kochia (Bassia scoparia) [5]; [18],60
same,Kochia plant response rating,kochia (Bassia scoparia) [5]; 500 g ai/ha,90
same,"Plant response rating, Kochia",kochia (Bassia scoparia) [6]; 125 g ai/ha,10
same,Kochia plant response rating,kochia (Bassia scoparia) [6]; 500 g ai/ha,60
same,"Plant response rating, Ragweed",[15],30
same,Ragweed plant response rating,[15],80
same,"Plant response rating, Foxtail, Giant",[7]; 125 g ai/ha,0
same,"Foxtail, Giant plant response rating",[7]; 500 g ai/ha,20
same,"Plant response rating, Barnyardgrass",[8]; [18],60
same,"Plant response rating, Barnyardgrass",[8]; 500 g ai/ha,90
same,"Plant response rating, Foxtail, Giant",[9]; [18],90
same,"Foxtail, Giant plant response rating",[9]; 500 g ai/ha,100
same,"Plant response rating, Ragweed",[10]; 125 g ai/ha,0
same,Ragweed plant response rating,[10]; 500 g ai/ha,10
same,"Plant response rating, Corn",corn (Zea mays); 125 g ai/ha,10
same,Corn plant response rating,corn (Zea mays); 500 g ai/ha,0
same,"Plant response rating, Blackgrass",[11]; 125 g ai/ha,0
same,Blackgrass plant response rating,[11]; 500 g ai/ha,20
same,"Plant response rating, Pigweed",[12]; [18],50
same,Pigweed plant response rating,[12]; 500 g ai/ha,80
same,"Plant response rating, Ryegrass, Italian",[13]; [18],40
same,"Ryegrass, Italian plant response rating",[13]; 500 g ai/ha,100
same,"Plant response rating, Ryegrass, Italian",[14]; 125 g ai/ha,0
same,"Ryegrass, Italian plant response rating",[14]; 500 g ai/ha,0
Cc1cc(C)c(C2=NOC3(CCC3)C2)cc1NS(=O)(=O)C(F)(F)F [Compound 228],"Plant response rating, Wheat",[1]; 125 g ai/ha,0
same,Wheat plant response rating,[1]; 500 g ai/ha,70
same,"Plant response rating, Pigweed",[2]; 125 g ai/ha,30
same,Pigweed plant response rating,[2]; 500 g ai/ha,70
same,"Plant response rating, Galium",[4]; 125 g ai/ha,80
same,Galium plant response rating,[4]; 500 g ai/ha,90
same,"Plant response rating, Kochia",kochia (Bassia scoparia) [5]; [18],60
same,Kochia plant response rating,kochia (Bassia scoparia) [5]; 500 g ai/ha,90
same,"Plant response rating, Kochia",kochia (Bassia scoparia) [6]; 125 g ai/ha,20
same,Kochia plant response rating,kochia (Bassia scoparia) [6]; 500 g ai/ha,80
same,"Plant response rating, Ragweed",[15],10
same,Ragweed plant response rating,[15],70
same,"Plant response rating, Foxtail, Giant",[7]; 125 g ai/ha,0
same,"Foxtail, Giant plant response rating",[7]; 500 g ai/ha,40
same,"Plant response rating, Barnyardgrass",[8]; [18],100
same,"Plant response rating, Barnyardgrass",[8]; 500 g ai/ha,100
same,"Plant response rating, Foxtail, Giant",[9]; [18],90
same,"Foxtail, Giant plant response rating",[9]; 500 g ai/ha,100
same,"Plant response rating, Ragweed",[10]; 125 g ai/ha,20
same,Ragweed plant response rating,[10]; 500 g ai/ha,30
same,"Plant response rating, Corn",corn (Zea mays); 125 g ai/ha,10
same,Corn plant response rating,corn (Zea mays); 500 g ai/ha,70
same,"Plant response rating, Blackgrass",[11]; 125 g ai/ha,0
same,Blackgrass plant response rating,[11]; 500 g ai/ha,0
same,"Plant response rating, Pigweed",[12]; [18],100
same,Pigweed plant response rating,[12]; 500 g ai/ha,100
same,"Plant response rating, Ryegrass, Italian",[13]; [18],100
same,"Ryegrass, Italian plant response rating",[13]; 500 g ai/ha,100
same,"Plant response rating, Ryegrass, Italian",[14]; 125 g ai/ha,0
same,"Ryegrass, Italian plant response rating",[14]; 500 g ai/ha,60
